In patent publication US4365063A, “Antihypertensive agents” (American Home Products Corporation, priority 1981, dated 1982):

Key:
[1] = test system: spontaneously hypertensive rats; assay: Systolic blood pressure lowering in spontaneously hypertensive rats; assay type: in vivo, rat
Protocol: The in vivo blood pressure lowering ability of the compounds of this invention was established by measuring the systolic pressure of spontaneously hypertensive rats with a Decker Caudal Plethysmograph or similar sensor device. The compound being tested is administered to groups of four rats and their blood pressure is read prior to compound administration and at 1.5 and 4 hours after compound administration. Depending upon the behavior of the compound being tested, the schedule of blood pressure readings and route of administration is modified. Initially the compounds are administered orally but where compound solubility is a factor, the compounds may be administered parenterally (i.e. i.p., i.m., s.c., i.v., etc.) as desired. The compounds of this invention were initially administered orally at a standard testing dose of 50 mg/kg., and where appropriate, smaller doses were administered to obtain a potency profile.
(§1) The following examples illustrate the preparation of a representative number of compounds of this invention. After each example, the Ca^+2 antagonist activity of the compound is presented in terms of percent relaxation (P.R.) at the stated concentration. Similarly, the antihypertensive activity is reported in terms of millimeters mercury (mmHg) blood pressure (B.P.) reduction at the stated time post oral dosing with the reported amount of compound.

[2] = test system: rabbit aortic strips; assay: Ca+2 antagonism: relaxation of potassium-contracted rabbit aortic strips; assay type: cell-based; settings: Oryctolagus cuniculus, strips contracted with 100 millimoles potassium ion, read-out: percent relaxation (P.R.); for inhibition at 10 µM: 10^-5 M bath concentration; for inhibition at 1 µM: 10^-6 M bath concentration
Protocol: After a stable active tension has developed in the strip, as measured by Statham UC-2 force transducers and recorded on an eight channel Beckman Dynograph Polygraphic Recorder, an amount of the antagonist was added to the organ bath to make a 10^-5 molar concentration of antagonist. The depressant effect, expressed as percent relaxation, was taken from the mean of at least two experiments. […] A Ca^+2 antagonist producing a 20 percent relaxation of aortic tissue in this test procedure at a 10^-5 molar bath concentration of the antagonist, generally produced a significant reduction in blood pressure when a sufficient amount is given to the spontaneously hypertensive rat.
as §1

SMILES | blood pressure (B.P.) reduction ([1]; 2.5 mg/kg oral, at 1.5 hours) | blood pressure (B.P.) reduction ([1]; 2.5 mg/kg oral, at 4 hours) | blood pressure (B.P.) reduction ([1]; 5 mg/kg oral, at 1.5 hours) | blood pressure (B.P.) reduction ([1]; 5 mg/kg oral, at 4 hours) | blood pressure (B.P.) reduction ([1]; 10 mg/kg oral, at 1.5 hours) | blood pressure (B.P.) reduction ([1]; 10 mg/kg oral, at 4 hours) | blood pressure (B.P.) reduction ([1]; 25 mg/kg oral, at 1.5 hours) | blood pressure (B.P.) reduction ([1]; 50 mg/kg oral, at 1.5 hours) | blood pressure (B.P.) reduction ([1]; 50 mg/kg oral, at 4 hours) | inhibition at 10 µM [2] | inhibition at 1 µM [2] | blood pressure (B.P.) reduction ([1]; 25 mg/kg oral, at 4 hours)
COC(=O)C1=C(C)NC2=C(C(=O)CNC2)C1c1c(F)c(F)c(F)c(F)c1F (centres unmarked) [Example 3, 1,4,5,6,7,8-Hexahydro-2-methyl-5-oxo-4-(2,3,4,5,6-pentafluorophenyl)-1,7-naphthyridine-3-carboxylic Acid Methyl Ester] | -34 mmHg | -30 mmHg | -48 mmHg | -36 mmHg | -79 mmHg | -24 mmHg | -76 mmHg | -64 mmHg | -88 mmHg | 78.7% | 65.2% | 
COC(=O)C1=C(C)NC2=C(C(=O)CN(C)C2)C1c1c(F)c(F)c(F)c(F)c1F (centres unmarked) [Example 1, 1,4,5,6,7,8-Hexahydro-2,7-dimethyl-4-[2,3,4,5,6-pentafluorophenyl]-5-oxo-1,7-naphthyridine-3-carboxylic Acid Methyl Ester] |  |  | -21 mmHg | -10 mmHg | -63 mmHg | -31 mmHg | -71 mmHg | -95 mmHg | -89 mmHg | 22.9% |  | -49 mmHg
COC(=O)C1=C(C)NC2=C(C(=O)CN(Cc3ccccc3)C2)C1c1c(F)c(F)c(F)c(F)c1F (centres unmarked) [Example 2, 1,4,5,6,7,8-Hexahydro-2-methyl-5-oxo-4-(2,3,4,5,6-pentafluorophenyl)-7-(phenylmethyl)-1,7-naphthyridine-3-carboxylic Acid Methyl Ester] |  |  |  |  |  |  |  | -20 mmHg | -23 mmHg |  | 56% | 
